# In patent US10688080B2, “Compositions, methods of use, and methods of treatment” (priority 2016, dated 2020):
# pKi: −log10 of the molar value.
# Key:
# KPC-2 = target: T1, KPC-2 (Klebsiella pneumoniae, UniProt Q9F663); test: Steady-state kinetic nitrocefin hydrolysis inhibition, KPC-2; type: biochemical
# T1 construct: made in house; host or cells: bacteria, IPTG-induced
# Method: For His tag KPC-2 beta-lactamase, bacteria were grown overnight at 30 C with shaking in 50 mL LB broth supplemented with 50 μg/mL kanamycin. Two liters of LB broth supplemented with 50 μg/mL kanamycin, 200 mM sorbitol, and 5 mM betaine were each inoculated with 10 mL of overnight bacterial culture. Cultures were then grown at 37 C until an optical density at 600 nm (OD600) of 0.6-0.7. Protein expression was then initiated by the addition of IPTG (final concentration 0.5 mM), followed by growth for 16 hr at 20 C. Cells were pelleted by centrifugation and stored at −80 C until further use. The his tag KPC-2 beta-lactamase was purified by nickel affinity chromatography and gel filtration. Briefly, the cell pellets were thawed and re-suspended in 40 mL of buffer A (20 mM Tris-HCl pH 8.0, 300 mM NaCl, 20 mM imidazole) with one complete protease inhibitor cocktail tablet (Roche) and disrupted by sonication, followed by ultracentrifugation to clarify the lysate. After ultracentrifugation, the supernatant was passed through a 0.22 μm filter before loading onto a 5 mL HisTrap HP affinity column (GE Healthcare Life Sciences, USA) pre-equilibrated with buffer A. His tag KPC-2 was eluted by a linear imidazole gradient (20 mM to 500 mM). Fractions were analyzed by SDS-PAGE. Fractions containing his tag KPC-2 were concentrated using a 10 k NMWL Amicon Ultra-15 Centrifugal Filter Unit. Concentrated his tag KPC-2 was then loaded onto a superdex 75 gel filtration column (GE Healthcare Life Sciences) pre-equilibrated with 20 mM Tris-HCl pH 8.0, 300 mM NaCl. Protein concentration was determined by absorbance at 280 using an extinction coefficient of 39,545.
# (§1) Steady-state kinetic parameters were determined by using a Biotek Cytation 5 Cell Imaging Multi-Mode Reader. For KPC-2 and CTX M-14, each assay was performed in 100 mM Tris-HCl pH 7.0, 0.01% Triton X-100 at 37 C. Vmax and Km were determined from initial steady-state velocities from nitrocefin read at a wavelength of 486 nm. The kinetic parameters were obtained using the non-linear portion of the data to the Henri-Michaelis (equation 1) using Gera version 2.07. V=Vmax[S]/(Km+[S]) (Equation 1)
# (§2) IC50, defined as the inhibitor concentration that results in a 50% reduction of nitrocefin (20 μM for KPC-2 and 50 μM for CTX M-14) hydrolysis was determined by measurements of initial velocities after mixing 1 nM of KPC-2 or CTX M-14 with increasing concentrations of inhibitors. The inhibition constant (Ki) was calculated according to equation 2: Ki=IC50/([S]/Km+1) (Equation 2)
# NDM-1 = target: T2, NDM-1 (Klebsiella pneumoniae, UniProt C7C422); test: Steady-state kinetic nitrocefin hydrolysis inhibition, NDM-1; type: biochemical; conditions: for pKi: nitrocefin 10 μM, 1 μM ZnSO4, Ki=IC50/([S]/Km+1)
# T2 construct: SUMO tag (cleaved yes); made in house; host or cells: bacteria, IPTG-induced
# T2 sequence (C7C422 29-270, looked up, species assumed): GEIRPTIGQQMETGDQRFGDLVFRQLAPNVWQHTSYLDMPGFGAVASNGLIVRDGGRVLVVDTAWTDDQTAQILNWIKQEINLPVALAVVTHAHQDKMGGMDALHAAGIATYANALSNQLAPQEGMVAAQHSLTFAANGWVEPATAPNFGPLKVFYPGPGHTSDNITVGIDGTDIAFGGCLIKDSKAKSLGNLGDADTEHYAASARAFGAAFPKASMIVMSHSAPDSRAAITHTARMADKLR
# Method: For sumo tag NDM-1 metallo-beta-lactamase, bacteria were grown overnight at 30 C with shaking in 50 mL LB broth supplemented with 100 μg/mL ampicillin. Two liters of LB broth supplemented with 100 μg/mL ampicillin were each inoculated with 10 mL of overnight bacterial culture. Cultures were then grown at 37 C until an optical density at 600 nm (OD600) of 0.6-0.7. Protein expression was then initiated by the addition of IPTG (final concentration 0.5 mM), followed by growth for 16 hr at 20 C. Cells were pelleted by centrifugation and stored at −80 C until further use. The sumo tag NDM-1 beta-lactamase was purified by nickel affinity chromatography and gel filtration. Briefly, the cell pellets were thawed and re-suspended in 40 mL of buffer A (20 mM HEPES pH 7.4, 0.5 M NaCl, 20 mM imidazole) with one complete protease inhibitor cocktail tablet (Roche) and disrupted by sonication, followed by ultracentrifugation to clarify the lysate. After ultracentrifugation, the supernatant was passed through a 0.22 μm filter before loading onto a 5 mL HisTrap HP affinity column (GE Healthcare Life Sciences, USA) pre-equilibrated with buffer A. Sumo tag NDM-1 was eluted by a linear imidazole gradient (20 mM to 500 mM). Fractions were analyzed by SDS-PAGE. Fractions containing sumo tag NDM-1 were buffer exchanged into 20 mM HEPES pH 7.0, 100 mM NaCl. Cleavage of the sumo tag was then carried out with ULP1 protease overnight at room temperature and then concentrated using a 10 k NMWL Amicon Ultra-15 Centrifugal Filter Unit. The sample was then loaded back onto a nickel affinity column and the flow through was collected, containing the untagged NDM-1. NDM-1 was concentrated and loaded onto a gel filtration column (GE Healthcare Life Sciences) pre-equilibrated with 20 mM HEPES pH 7.0, 100 mM NaCl. Protein concentration was determined by absorbance at 280 using an extinction coefficient of 27,960.
# as §1, §2
# For NDM-1, the procedures were the same as above except the assay was performed in 100 mM Tris-HCl pH 7.0, 1 μM ZnSO4, 0.01% Triton X-100. In addition, a nitrocefin concentration of 10 μM was used.
# OXA-48 = OXA-48 (Klebsiella pneumoniae, UniProt Q6XEC0); test: Steady-state kinetic β-lactamase inhibition, OXA-48; type: biochemical; conditions: read-out: OXA-48 % inhibition at stated concentration
# Chain of OXA-48 (Q6XEC0 23-265 limits assumed): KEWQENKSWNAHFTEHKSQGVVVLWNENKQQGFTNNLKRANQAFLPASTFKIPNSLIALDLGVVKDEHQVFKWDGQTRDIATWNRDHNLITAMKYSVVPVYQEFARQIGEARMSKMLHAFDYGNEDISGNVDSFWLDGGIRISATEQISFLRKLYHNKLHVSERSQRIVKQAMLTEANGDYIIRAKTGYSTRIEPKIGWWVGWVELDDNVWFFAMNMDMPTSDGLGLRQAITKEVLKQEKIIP
# CTX-M14 = CTX-M14 (Escherichia coli, UniProt Q9L5C7); test: Steady-state kinetic nitrocefin hydrolysis inhibition, CTX-M14; type: biochemical; conditions: for pKi: nitrocefin 50 μM, 1 nM enzyme, Ki=IC50/([S]/Km+1)
# Chain of CTX-M14 (Q9L5C7 29-291, species assumed): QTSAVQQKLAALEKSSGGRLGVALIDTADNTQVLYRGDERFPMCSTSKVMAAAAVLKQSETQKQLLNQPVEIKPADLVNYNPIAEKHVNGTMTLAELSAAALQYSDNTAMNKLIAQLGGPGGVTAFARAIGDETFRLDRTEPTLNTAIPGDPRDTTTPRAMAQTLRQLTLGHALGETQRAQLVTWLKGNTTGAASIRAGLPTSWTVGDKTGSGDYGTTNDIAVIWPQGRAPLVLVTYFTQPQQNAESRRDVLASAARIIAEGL
# Method: as §1, §2
# SHV-2 = SHV-2 (Klebsiella pneumoniae, UniProt P0A9Z8); test: Steady-state kinetic β-lactamase inhibition, SHV-2; type: biochemical
# Chain of SHV-2 (P0A9Z8 22-286): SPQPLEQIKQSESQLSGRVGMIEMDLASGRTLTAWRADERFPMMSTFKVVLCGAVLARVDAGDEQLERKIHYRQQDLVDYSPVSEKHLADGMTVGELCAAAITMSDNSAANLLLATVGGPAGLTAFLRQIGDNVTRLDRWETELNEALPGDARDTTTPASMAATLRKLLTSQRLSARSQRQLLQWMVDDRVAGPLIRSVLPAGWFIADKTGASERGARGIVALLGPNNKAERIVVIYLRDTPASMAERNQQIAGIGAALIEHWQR
# [1] = tested on: BL21(DE3) E. coli expressing KPC-2; test: MIC studies, synergy with imipenem (broth microdilution); type: cell-based; conditions: Escherichia coli, 24 h, read-out: MIC of imipenem
# Method: Compounds were tested for synergy with the carbapenem antibiotic, imipenem, against BL21(DE3) E. coli expressing KPC-2. MIC values were determined with the Mueller-Hinton broth microdilution method. To test for inhibitory activity, compounds were dissolved in DMSO and dilutions were carried out using LB broth. Compounds were test at 100 μM with increasing concentrations of imipenem. […] After inoculation, the plates are incubated at 37 C for 24 hours. The MIC of the compounds are then determined visually.
# T1 sequence (Q9F663 25-293 limits assumed): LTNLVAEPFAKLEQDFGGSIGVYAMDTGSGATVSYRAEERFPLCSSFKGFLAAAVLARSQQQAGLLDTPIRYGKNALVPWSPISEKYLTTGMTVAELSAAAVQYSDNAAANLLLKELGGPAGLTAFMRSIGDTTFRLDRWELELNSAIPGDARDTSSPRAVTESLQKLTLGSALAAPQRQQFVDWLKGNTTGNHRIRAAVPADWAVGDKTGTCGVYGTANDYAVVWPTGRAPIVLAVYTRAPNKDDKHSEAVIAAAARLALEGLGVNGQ
smiles,measurement,setting,value
"O=C(Nc1nnn[nH]1)C1CN(C(=O)c2cccc(C(F)(F)F)c2)c2ccccc21 (centres unmarked) [Compound 2, N-(1H-tetrazol-5-yl)-1-(3-(trifluoromethyl)benzoyl)indoline-3-carboxamide]",pKi,KPC-2,5.92
same,pKi,NDM-1,3.02
"O=C(Nc1nc(C(=O)Nc2nnn[nH]2)c(-c2ccccc2)s1)c1nccs1 [Compound 6, N-(4-((1H-tetrazol-5-yl)carbamoyl)-5-phenylthiazol-2-yl)thiazole-2-carboxamide]",pKi,KPC-2,4.59
same,inhibition at 4800 µM,OXA-48,50%
"O=C(Nc1nnn[nH]1)[C@@H]1CCCN(S(=O)(=O)c2cccc(C(F)(F)F)c2)C1 [Compound 9, (R)—N-(1H-tetrazol-5-yl)-1-((3-(trifluoromethyl)phenyl)sulfonyl)piperidine-3-carboxamide]",pKi,KPC-2,4.11
same,pKi,CTX-M14,3.61
same,inhibition at 4800 µM,OXA-48,20%
"O=C(N[C@H]1CCCCN(c2nnn[nH]2)C1=O)c1cc(C(F)(F)F)cc2nc[nH]c12.O=CO [Compound 21, (S)—N-(2-oxo-1-(1H-tetrazol-5-yl)azepan-3-yl)-5-(trifluoromethyl)-1H-benzo[d]imidazole-7-carboxamide formate]",pKi,SHV-2,4.22
same,KPC-2 % inhibition at stated concentration,KPC-2; at 1600 (uM),30% at 1600
same,pKi,CTX-M14,3.63
"O=C(Nc1nnn[nH]1)C(Sc1ccccc1)c1ccccc1 (centres unmarked) [Compound 22, 2-phenyl-2-(phenylthio)-N-(1H-tetrazol-5-yl)acetamide]",pKi,KPC-2,4.58
same,pKi,NDM-1,4.24
"O=C(Nc1nnn[nH]1)C(Nc1ccccc1)c1ccccc1 (centres unmarked) [Compound 25, 2-phenyl-2-(phenylamino)-N-(1H-tetrazol-5-yl)acetamide]",pKi,KPC-2,3.28
same,pKi,NDM-1,3.19
same,inhibition at 5000 µM,OXA-48,40%
O=C(Nc1nnn[nH]1)c1cn(S(=O)(=O)c2cccc(C(F)(F)F)c2)c2ccccc12 [Compound 27],pKi,KPC-2,3.52
CC(c1cccc(C(F)(F)F)c1)n1cc(C(=O)Nc2nnn[nH]2)c2ccccc21 (centres unmarked) [Compound 29],KPC-2 % inhibition at stated concentration,KPC-2; at 1900 (uM),50% at 1900
same,CTX-M14 % inhibition at stated concentration,CTX-M14; at 1900 (uM),50% at 1900
O=C(Nc1nnn[nH]1)c1c[nH]c2ccccc12 [Compound 30],pKi,KPC-2,2.52
same,pKi,NDM-1,3.45
CC1(C(=O)Nc2nnn[nH]2)CN(C(=O)c2cccc(C(F)(F)F)c2)c2ccccc21 (centres unmarked) [Compound 31],pKi,KPC-2,3.45
same,pKi,NDM-1,3.70
CC(=O)N1CC(C)(C(=O)Nc2nnn[nH]2)c2ccccc21 (centres unmarked) [Compound 32],KPC-2 % inhibition at stated concentration,KPC-2; at 4800 (uM),40% at 4800
same,pKi,NDM-1,3.81
same,CTX-M14 % inhibition at stated concentration,CTX-M14; at 4800 (uM),10% at 4800
same,inhibition at 3900 µM,OXA-48,16%
CC1(C(=O)Nc2nnn[nH]2)CN(S(C)(=O)=O)c2ccccc21 (centres unmarked) [Compound 33],pKi,KPC-2,2.57
same,pKi,NDM-1,3.79
same,inhibition at 3900 µM,OXA-48,20%
O=C(Nc1nc(C(=O)Nc2nnn[nH]2)c(-c2ccccc2)s1)c1ncc[nH]1.O=CO [Compound 34],pKi,KPC-2,3.95
same,NDM-1 % inhibition at stated concentration,NDM-1; at 1000 (uM),20% at 1000
same,inhibition at 1600 µM,OXA-48,35%
O=C(Nc1nc(C(=O)Nc2nnn[nH]2)c(-c2ccccc2)s1)c1ncco1 [Compound 35],inhibition at 800 µM,OXA-48,20%
O=C(Nc1nnn[nH]1)[C@@H]1CCN(C(=O)c2cccc(C(F)(F)F)c2)C1 [Compound 36],pKi,KPC-2,2.70
same,pKi,NDM-1,4.32
same,pKi,CTX-M14,2.53
O=C(Nc1nnn[nH]1)[C@@H]1CCN(S(=O)(=O)c2cccc(C(F)(F)F)c2)C1 [Compound 37],pKi,KPC-2,3.33
same,NDM-1 % inhibition at stated concentration,NDM-1; at 1800 (uM),30% at 1800
same,pKi,CTX-M14,3.00
O=C(Nc1nnn[nH]1)[C@H]1CCN(C(=O)c2cccc(C(F)(F)F)c2)C1 [Compound 38],pKi,KPC-2,2.70
same,NDM-1 % inhibition at stated concentration,NDM-1; at 3500 (uM),40% at 3500
same,pKi,CTX-M14,2.52
O=C(Nc1nnn[nH]1)[C@H]1CCN(S(=O)(=O)c2cccc(C(F)(F)F)c2)C1 [Compound 39],pKi,KPC-2,2.82
same,NDM-1 % inhibition at stated concentration,NDM-1; at 1800 (uM),10% at 1800
same,pKi,CTX-M14,2.70
O=C(Nc1nnn[nH]1)[C@@H]1CCCN(C(=O)c2cccc(C(F)(F)F)c2)C1 [Compound 40],pKi,KPC-2,3.96
same,NDM-1 % inhibition at stated concentration,NDM-1; at 1000 (uM),20% at 1000
same,inhibition at 4800 µM,OXA-48,35%
O=C(CNc1ccccc1)Nc1nnn[nH]1 [Compound 42],pKi,KPC-2,2.92
"C[C@@H](O)[C@H]1C(=O)N2C(C(=O)O)=C(SCCN=CN)C[C@H]12 [Imipenem, imipenem]",MIC,[1],2 µg/mL
